Results as given in ChEMBL document CHEMBL1201862, “PubChem BioAssay data set” (2004).
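1) Cells in 96-well plates. 2) Compound, 48 h, 5 concentrations. 3) Linear interpolation between surrounding doses. 4) Unreached endpoint = highest concentration. GI50 marks 50% less growth.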 The source made the active and inactive calls. No stated cut-off is given here; in the data, active = GI50 up to about 1.1 µM and inactive = higher.

Tests used:
Assay in all cases: growth of human tumour cells (NCI), 48 h
[1] = test system: SF-539
[2] = test system: M14
[3] = test system: DMS-114
[4] = test system: NCI-H460
[5] = test system: SR
[6] = test system: NCI-H522
[7] = test system: Malme-3M
[8] = test system: A498
[9] = test system: K562
[10] = test system: CCRF-CEM
[11] = test system: A549
[12] = test system: COLO 205
[13] = test system: KM12
[14] = test system: SK-MEL-28
[15] = test system: SN12C
[16] = test system: SK-MEL-5
[17] = test system: OVCAR-8
[18] = test system: SNB-75
[19] = test system: SW-620
[20] = test system: HOP-62
[21] = test system: DLD-1
[22] = test system: U-251
[23] = test system: M19-MEL
[24] = test system: SF-268
[25] = test system: SK-MEL-2
[26] = test system: HCT-116
[27] = test system: OVCAR-3
[28] = test system: HOP-92
[29] = test system: DMS-273
[30] = test system: RPMI-8226
[31] = test system: SK-OV-3
[32] = test system: SNB-19
[33] = test system: CAKI-1
[34] = test system: UO-31
[35] = test system: LXFL 529
[36] = test system: NCI-H226
[37] = test system: EKVX
[38] = test system: OVCAR-5
[39] = test system: TK-10
[40] = test system: ACHN
[41] = test system: SNB-78
[42] = test system: XF498
[43] = test system: UACC-62
[44] = test system: RXF 631
[45] = test system: IGROV-1
[46] = test system: 786-0
[47] = test system: MOLT-4
[48] = test system: NCI-H23
[49] = test system: HT-29
[50] = test system: HCT-15
[51] = test system: KM-20L2
[52] = test system: HOP-18
[53] = test system: UACC-257
[54] = test system: RXF 393
[55] = test system: HL-60
[56] = test system: HCC 2998
[57] = test system: SF-295
[58] = test system: LOX IMVI
[59] = test system: OVCAR-4

Cn1c(=O)c2[nH]cnc2n(CC(=O)O)c1=O
GI50 [1]: > 100 µM (inactive)
GI50 [2]: > 100 µM (inactive)
GI50 [3]: > 100 µM (inactive)
GI50 [4]: > 100 µM (inactive)
GI50 [5]: > 100 µM (inactive)
GI50 [6]: > 100 µM (inactive)
GI50 [7]: > 100 µM (inactive)
GI50 [8]: > 100 µM (inactive)
GI50 [9]: > 100 µM (inactive)
GI50 [10]: > 100 µM (inactive)
GI50 [11]: > 100 µM (inactive)
GI50 [12]: > 100 µM (inactive)
GI50 [13]: > 100 µM (inactive)
GI50 [14]: > 100 µM (inactive)
GI50 [15]: > 100 µM (inactive)
GI50 [16]: > 100 µM (inactive)
GI50 [17]: > 100 µM (inactive)
GI50 [18]: > 100 µM (inactive)
GI50 [19]: > 100 µM (inactive)
GI50 [20]: > 100 µM (inactive)
GI50 [21]: > 100 µM (inactive)
GI50 [22]: > 100 µM (inactive)
GI50 [23]: > 100 µM (inactive)
GI50 [24]: > 100 µM (inactive)
GI50 [25]: > 100 µM (inactive)
GI50 [26]: > 100 µM (inactive)
GI50 [27]: > 100 µM (inactive)
GI50 [28]: > 100 µM (inactive)
GI50 [29]: > 100 µM (inactive)
GI50 [30]: > 100 µM (inactive)
GI50 [31]: > 100 µM (inactive)
GI50 [32]: > 100 µM (inactive)
GI50 [33]: > 100 µM (inactive)
GI50 [34]: > 100 µM (inactive)
GI50 [35]: > 100 µM (inactive)
GI50 [36]: > 100 µM (inactive)
GI50 [37]: > 100 µM (inactive)
GI50 [38]: > 100 µM (inactive)
GI50 [39]: > 100 µM (inactive)
GI50 [40]: > 100 µM (inactive)
GI50 [41]: > 100 µM (inactive)
GI50 [42]: > 100 µM (inactive)
GI50 [43]: > 100 µM (inactive)
GI50 [44]: > 100 µM (inactive)
GI50 [45]: > 100 µM (inactive)
GI50 [46]: > 100 µM (inactive)
GI50 [47]: > 100 µM (inactive)
GI50 [48]: > 100 µM (inactive)
GI50 [49]: > 100 µM (inactive)
GI50 [50]: > 100 µM
GI50 [51]: > 100 µM (inactive)

CSc1cnc2ccccc2c1Sc1cn(C)c2ccccc2c1=O
GI50 [1]: 29 µM (inactive)
GI50 [2]: > 100 µM (inactive)
GI50 [52]: 34 µM (inactive)
GI50 [3]: 14.9 µM (inactive)
GI50 [4]: 13.2 µM (inactive)
GI50 [5]: 12.6 µM (inactive)
GI50 [7]: > 100 µM (inactive)
GI50 [53]: 59.4 µM (inactive)
GI50 [8]: 36.2 µM (inactive)
GI50 [9]: 7.82 µM (inactive)
GI50 [10]: 19.7 µM (inactive)
GI50 [11]: 8.17 µM (inactive)
GI50 [12]: 17 µM (inactive)
GI50 [13]: 25.8 µM (inactive)
GI50 [14]: 27.9 µM (inactive)
GI50 [15]: 28.8 µM (inactive)
GI50 [16]: 24.4 µM (inactive)
GI50 [17]: 18.5 µM (inactive)
GI50 [18]: 17 µM (inactive)
GI50 [19]: 70.6 µM (inactive)
GI50 [20]: 18 µM (inactive)
GI50 [21]: > 100 µM (inactive)
GI50 [54]: 38.4 µM (inactive)
GI50 [55]: 16 µM (inactive)
GI50 [22]: 7.14 µM (inactive)
GI50 [23]: 56 µM (inactive)
GI50 [24]: 9.14 µM (inactive)
GI50 [25]: 21.8 µM (inactive)
GI50 [26]: 10.2 µM (inactive)
GI50 [56]: 70.8 µM (inactive)
GI50 [27]: 28.7 µM (inactive)
GI50 [28]: 12 µM (inactive)
GI50 [29]: 21.6 µM (inactive)
GI50 [30]: 17.9 µM (inactive)
GI50 [31]: 17.6 µM (inactive)
GI50 [32]: 19.1 µM (inactive)
GI50 [34]: 25.5 µM (inactive)
GI50 [57]: 22.6 µM (inactive)
GI50 [36]: 26.1 µM (inactive)
GI50 [37]: 29.3 µM (inactive)
GI50 [38]: > 100 µM (inactive)
GI50 [39]: > 100 µM (inactive)
GI50 [40]: > 100 µM (inactive)
GI50 [58]: 14.6 µM (inactive)
GI50 [42]: 21.9 µM (inactive)
GI50 [43]: 21.9 µM (inactive)
GI50 [44]: 10 µM (inactive)
GI50 [45]: 18.7 µM (inactive)
GI50 [46]: 30.3 µM (inactive)
GI50 [47]: 53.2 µM (inactive)
GI50 [48]: 19.5 µM (inactive)
GI50 [49]: 58.5 µM (inactive)
GI50 [59]: 34.8 µM (inactive)
GI50 [50]: 35.8 µM
GI50 [51]: 38.9 µM (inactive)

c1ccc2c(c1)CCC/C2=N\OCC1CO1 (stereo not given)
GI50 [1]: > 100 µM (inactive)
GI50 [2]: 80.9 µM (inactive)
GI50 [52]: 66.2 µM (inactive)
GI50 [4]: > 100 µM (inactive)
GI50 [7]: > 100 µM (inactive)
GI50 [53]: > 100 µM (inactive)
GI50 [8]: 82 µM (inactive)
GI50 [9]: 43.8 µM (inactive)
GI50 [10]: 23.2 µM (inactive)
GI50 [11]: > 100 µM (inactive)
GI50 [12]: > 100 µM (inactive)
GI50 [13]: > 100 µM (inactive)
GI50 [15]: > 100 µM (inactive)
GI50 [16]: > 100 µM (inactive)
GI50 [17]: 81.7 µM (inactive)
GI50 [18]: > 100 µM (inactive)
GI50 [19]: 92.9 µM (inactive)
GI50 [20]: > 100 µM (inactive)
GI50 [21]: 73.3 µM (inactive)
GI50 [54]: 31.8 µM (inactive)
GI50 [55]: 28.4 µM (inactive)
GI50 [22]: > 100 µM (inactive)
GI50 [23]: > 100 µM (inactive)
GI50 [24]: 52.4 µM (inactive)
GI50 [25]: 61.2 µM (inactive)
GI50 [26]: 47.2 µM (inactive)
GI50 [56]: > 100 µM (inactive)
GI50 [27]: > 100 µM (inactive)
GI50 [28]: 5.77 µM (inactive)
GI50 [29]: > 100 µM (inactive)
GI50 [30]: 55.1 µM (inactive)
GI50 [31]: > 100 µM (inactive)
GI50 [32]: > 100 µM (inactive)
GI50 [33]: 36.1 µM (inactive)
GI50 [34]: 38.6 µM (inactive)
GI50 [35]: 64.3 µM (inactive)
GI50 [57]: 70.1 µM (inactive)
GI50 [37]: > 100 µM (inactive)
GI50 [38]: > 100 µM (inactive)
GI50 [39]: > 100 µM (inactive)
GI50 [40]: 68.4 µM (inactive)
GI50 [41]: > 100 µM (inactive)
GI50 [58]: 36.3 µM (inactive)
GI50 [42]: 37.6 µM (inactive)
GI50 [43]: 58.6 µM (inactive)
GI50 [44]: > 100 µM (inactive)
GI50 [45]: > 100 µM (inactive)
GI50 [46]: > 100 µM (inactive)
GI50 [47]: 49.3 µM (inactive)
GI50 [48]: 80 µM (inactive)
GI50 [49]: 98.4 µM (inactive)
GI50 [59]: > 100 µM (inactive)
GI50 [50]: > 100 µM
GI50 [51]: > 100 µM (inactive)
